Experimental data reported in paper PMC10589713 (Proceedings of the National Academy of Sciences of the …, 2023).
“And” between values parts separate entries of the source, which are not always exact repeats. Equal entries are not always repeated.

Columns and labels:
rgDENV2 NS5-G605V = format: cell-based, dengue virus
JUNV = assay: microbe, parasite or virus in culture; format: cell-based; settings: Mammarenavirus juninense, HEK-293T
DENV2 [1] = assay: microbe, parasite or virus in culture; format: cell-based; settings: Dengue virus, DENV2, BHK-21, 96 h
SARS-CoV-2 = assay: microbe, parasite or virus in culture; format: cell-based; settings: Severe acute respiratory syndrome coronavirus 2, VeroE6/TMPRSS2
DENV2 [2] = assay: microbe, parasite or virus in culture; format: cell-based; settings: Dengue virus, DENV2, Huh-7
YFV = assay: microbe, parasite or virus in culture; format: cell-based; settings: Yellow fever virus, BHK-21, 72 h
IAV H7N9 = assay: microbe, parasite or virus in culture; format: cell-based; settings: Influenza A virus, H7N9, MA104
DENV2 AG-P10 = tested on: DENV2 AG-P10; set-up: species or system AG129 mice; settings: mouse, in vivo
LCMV = assay: microbe, parasite or virus in culture; format: cell-based; settings: Mammarenavirus choriomeningitidis
LACV = assay: organism not typed; format: cell-based; settings: MDBK
RVFV = assay: microbe, parasite or virus in culture; format: cell-based; settings: Rift Valley fever virus, MDCK
SFTSV = assay: microbe, parasite or virus in culture; format: cell-based; settings: Severe fever with thrombocytopenia syndrome virus, MDCK
rgDENV2 Wild type = assay: microbe, parasite or virus in culture; format: cell-based; settings: Dengue virus, BHK-21, 96 h
MERS-CoV = assay: microbe, parasite or virus in culture; format: cell-based; settings: Middle East respiratory syndrome-related coronavirus, VeroE6/TMPRSS2
ZIKV = assay: microbe, parasite or virus in culture; format: cell-based; settings: Zika virus, BHK-21, 72 h
LPHV = assay: microbe, parasite or virus in culture; format: cell-based; settings: Leopards Hill virus
IAV H5N1 = assay: microbe, parasite or virus in culture; format: cell-based; settings: Influenza A virus, H5N1, A549
CHIKV = assay: microbe, parasite or virus in culture; format: cell-based; settings: Chikungunya virus, BHK-21
[3] = mouse, in vivo
ZIKV NS5 (RdRp) = ZIKV NS5 (RdRp) (Zika virus, UniProt A0A024B7W1); format: biochemical
Chain of ZIKV NS5 (RdRp) (A0A024B7W1 2521-3423 limits assumed): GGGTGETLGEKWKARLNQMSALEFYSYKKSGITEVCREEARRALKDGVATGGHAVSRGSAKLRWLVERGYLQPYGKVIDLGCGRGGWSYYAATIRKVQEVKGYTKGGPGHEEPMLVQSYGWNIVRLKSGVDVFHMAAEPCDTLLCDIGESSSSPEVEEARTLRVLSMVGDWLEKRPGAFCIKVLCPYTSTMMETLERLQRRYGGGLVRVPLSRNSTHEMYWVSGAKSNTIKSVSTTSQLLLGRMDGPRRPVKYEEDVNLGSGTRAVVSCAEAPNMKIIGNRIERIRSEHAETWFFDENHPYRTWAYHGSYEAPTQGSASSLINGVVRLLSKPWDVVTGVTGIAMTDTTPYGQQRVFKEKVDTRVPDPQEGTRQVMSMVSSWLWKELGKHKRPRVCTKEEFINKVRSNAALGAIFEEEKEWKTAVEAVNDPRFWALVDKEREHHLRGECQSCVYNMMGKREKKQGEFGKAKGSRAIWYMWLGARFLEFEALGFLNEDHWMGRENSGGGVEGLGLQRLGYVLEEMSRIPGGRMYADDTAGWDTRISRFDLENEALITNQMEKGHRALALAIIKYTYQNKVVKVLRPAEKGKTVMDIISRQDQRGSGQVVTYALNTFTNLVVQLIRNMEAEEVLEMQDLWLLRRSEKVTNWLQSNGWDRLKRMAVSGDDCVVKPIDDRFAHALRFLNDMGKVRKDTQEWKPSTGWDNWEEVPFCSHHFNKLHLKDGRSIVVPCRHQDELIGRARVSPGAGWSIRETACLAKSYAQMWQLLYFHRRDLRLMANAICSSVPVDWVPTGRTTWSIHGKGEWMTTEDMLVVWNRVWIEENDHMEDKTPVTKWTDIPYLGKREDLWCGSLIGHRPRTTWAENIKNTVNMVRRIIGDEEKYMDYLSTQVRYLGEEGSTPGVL

## NC(=O)c1nc(F)c[nH]c1=O [Favipiravir]
rgDENV2 NS5-G605V
  Fold change: 2.2

## NC(=O)c1ncn([C@@H]2O[C@H](CO)[C@@H](O)[C@H]2O)n1 [Ribavirin]
rgDENV2 NS5-G605V
  Fold change: 2.3

## O=c1ccn([C@@H]2O[C@H](CO)[C@@H](O)[C@H]2O)c(=S)[nH]1 [s2U, 2-thiouridine]
JUNV
  EC50: > 100 µM
DENV2 [1]
  EC50: 1.5 ± 0.1 µM
SARS-CoV-2
  EC50: 2.3 ± 0.43 µM
DENV2 [2]
  EC50: < 0.63 µM
  EC90: 3.4 µM
YFV
  EC50: 3.2 ± 1.4 µM
IAV H7N9
  EC50: > 100 µM
DENV2 AG-P10
  median survival: 12.5 days and > 16 days and 12 days and 13 days
LCMV
  EC50: > 100 µM
V79 cells
  mutagenicity, HPRT (in vitro gene mutation test): does not have sufficient ability to introduce mutations
LACV
  EC50: > 100 µM
RVFV
  EC50: > 100 µM
SFTSV
  EC50: > 100 µM
rgDENV2 Wild type
  EC50: 0.86 ± 0.12 µM
MERS-CoV
  EC50: 2.3 µM
ZIKV
  EC50: 3.8 ± 0.96 µM
LPHV
  EC50: > 100 µM
rgDENV2 NS5-G605V
  EC50: 5.1 ± 0.69 µM
IAV H5N1
  EC50: > 100 µM
CHIKV
  EC50: 3.8 ± 0.12 µM
[3]
  body weight change: no BW loss

## O=c1ccn([C@@H]2O[C@H](COP(=O)(O)OP(=O)(O)OP(=O)(O)O)[C@@H](O)[C@H]2O)c(=S)[nH]1 [s2UTP, s2U 5′-triphosphate]
ZIKV NS5 (RdRp)
  RNA extension catalyzed by ZIKV RdRp: inhibited RNA extension
